According to patent US8609162B2, “Integrated neuromodulation system for mood enhancement of a living human subject” (priority 2012, dated 2013):

How the values were obtained:
[1] = test system: normal, healthy volunteers; assay: clinical trial of subjective mood enhancement after ingestion of the prepared beverage, eight test groups; type: in vivo, human; details: for duration of effect: following ingestion of the prepared beverage; for Score, subjective feeling of mood enhancement: scale of 0 (no change) to 10 (euphoric), N=10 per group, oral solution in 125 mL juice, 10 day period; for mood effect as described: subjective report in words
Procedure: A set of clinical trials were performed using the median dosing of a ‘typical formulation’ in randomly selected normal, healthy volunteers ranging from 14 to 80 years (mean age 44.5 years) greater than 50 kg body weight over a 10 day period. At the end of the clinical trial, subjects were asked to subjectively rate the feeling of mood enhancement, ranging from a scale of 0 (no change) to 10 (euphoric) and to rate the duration of effect (in hours) following ingestion of the prepared beverage. Members also were encouraged to report any side effects, if any.
Eight different test groups of ten human subjects each (N=10) were devised as follows:
Test Group 1: Oral solution containing 125 mL juice (7% carbohydrate), 3 times daily. This formulation represents placebo.
(§1) Test Group 2: L-Phenylalanine, 800 mg and mucina pruriens, 15% L-DOPA, 200 mg oral solution in 125 mL juice (containing 7% carbohydrate), 3 times daily. This nootropic formulation affects the following neurotransmitter systems: dopamine agonist, a stimulant. The type number ratio is 2:0:0:0:0 to produce a ΔN=+2. This agent fails the test for producing predictable mood enhancement because it is has an imbalanced type number ratio, resulting in a net stimulatory effect (ΔN=+2), and producing a predictable mood over stimulation.
as §1, with “3: Phenylethylamine hydrochloride, 400” for “2: L-Phenylalanine, 800 mg and mucina pruriens, 15% L-DOPA, 200”, “single dose.” for “3 times daily.”, “1:0:0:0:0” for “2:0:0:0:0”, “ΔN=+1.” for “ΔN=+2.”, “(ΔN=+1),” for “(ΔN=+2),”
(§2) Test Group 4: Dimethylaminoethanol bitartrate, 300 mg oral solution in 125 mL juice (containing 7% carbohydrate), 3 times daily. This nootropic formulation affects the following neurotransmitter systems: acetylcholine agonist, an inhibitor. The type number ratio is 0:1:0:0:0 to produce a ΔN=−1. This agent fails the test for producing predictable mood enhancement because it is has an imbalanced type number ratio, resulting in a net inhibitory effect (ΔN=−1), and producing a predictable mood suppression.
as §2, with “5: S-Adenosyl-methionine tosylate disulfate,” for “4: Dimethylaminoethanol bitartrate,”, “serotonin” for “acetylcholine”, “0:0:1:0:0” for “0:1:0:0:0”
as §1, with “6: Anhydrous caffeine, 80” for “2: L-Phenylalanine, 800 mg and mucina pruriens, 15% L-DOPA, 200”, “adenosine antagonist,” for “dopamine agonist,”, “0:0:0:0:1” for “2:0:0:0:0”, “ΔN=+1.” for “ΔN=+2.”, “(ΔN=+1),” for “(ΔN=+2),”
as §2, with “7: L-Theanine, 200” for “4: Dimethylaminoethanol bitartrate, 300”, “GABA” for “acetylcholine”, “0:0:0:1:0” for “0:1:0:0:0”, “suppression. […]” for “suppression.”

[2] = doses as low as; cited from earlier work

Cn1c(=O)c2c(ncn2C)n(C)c1=O [Test Group 6, Anhydrous caffeine]
side effects reported ([1]; 10 subjects per group): No side effects reported
duration of effect [1]: 2 h
Score, subjective feeling of mood enhancement [1]: 3.0
mood effect as described [1]: felt alert

CCNC(=O)CC[C@H](N)C(=O)O [Test Group 7, L-Theanine]
duration of effect [1]: 3 h
side effects reported ([1]; human, in vivo): No side effects reported
Score, subjective feeling of mood enhancement [1]: 6.5
mood effect as described [1]: very calm, sedative-like effect

S-Adenosyl-methionine tosylate disulfate [Test Group 5]
side effects reported ([1]; 10 subjects per group): No side effects reported
duration of effect [1]: 3 h
Score, subjective feeling of mood enhancement [1]: 6.0
mood effect as described [1]: better mood
mood effect as described ([1]; listed as S-adenosyl-methionine tosylate disulfate): moderate mood enhancement

Dimethylaminoethanol bitartrate [Test Group 4]
side effects reported ([1]; 10 subjects per group): headache in 1 of 10 subjects
duration of effect [1]: less than 1 hours
Score, subjective feeling of mood enhancement [1]: 2.0
mood effect as described [1]: mild effect

Cl.NCCc1ccccc1 [Test Group 3, Phenylethylamine hydrochloride]
side effects reported ([1]; 10 subjects per group): flushing in 4 of 10 subjects
duration of effect [1]: less than 30 minutes
Score, subjective feeling of mood enhancement [1]: 7.5
mood effect as described ([1]; hydrochloride): temporary euphoric feeling
mood effect as described ([1]; listed as Phenylethyamine hydrochloride, hydrochloride): noticeable but short-term effect

CCN(CC)C(=O)[C@@H]1C=C2c3cccc4[nH]cc(c34)C[C@H]2N(C)C1 [LSD]
dose producing hallucinogenic and entheogenic effects [2]: 30 to 40 µg
